US10610538B2, “Pradimicin derivatives for the treatment of diseases caused by kinetoplastids” (KATHOLIEKE UNIVERSITEIT LEUVEN, priority 2013, dated 2020)
Converted amounts (≈) assume the structure as drawn. Where two headings read alike, the source gives them in different places.

Key:
[1] = tested on: T. cruzi trypomastigotes; experiment: Lysis of T. cruzi trypomastigotes (resazurin); format: cell-based, Trypanosoma cruzi Tulahuen strain C4; conditions: 24 h, half-maximal lysis
Protocol: (§1) Activity of pradimicin A (PRM-A) and S (PRM-S) against T. cruzi was studied in epimastigote and trypomastigote forms of T. cruzi Tulahuen strain C4.
(§2) In the case of epimastigote forms, 2×10^5 parasites were seeded in a 96-wells plate (100 μL) and incubated 3 days with different drug concentrations between 0.0625 μg·mL^−1 and 100 μg·mL^−1 in liver infusion tryptose (LIT) medium supplemented with 10% fetal calf serum at 28° C. In the case of trypomastigotes, 1×10^5 parasites were seeded in a 96-well plate (100 μL) and incubated with different drug concentrations between 0.006 μg·mL^−1 and 12.5 μg·mL^−1 for 24 h in RPMI 1640 medium supplemented with 10% FBS, 2 mM L-glutamine, 100 U·mL^−1 penicillin and 100 μg·mL^−1 streptomycin at 37° C. and 5% CO2. Cell viability of epimastigotes and lysis percentage of trypomastigotes were determined by adding 10 μL of resazurin (0.11 mg·mL^−1 in PBS) and measuring fluorescence at 570/590 nm of excitation/emission wavelength after 2 h of incubation using a Spectramax Gemini EM microplate fluorometer (Molecular Devices Cooperation, Sunnyvale, Calif., USA). EC50 or 50% lysis values were defined as the drug concentration required for half-maximal inhibition of the cellular growth rate or half-maximal lysis and were calculated by nonlinear regression analysis.

[2] = tested on: L. donovani amastigotes; experiment: In vitro activity against intracellular L. donovani amastigotes in mouse peritoneal macrophages; format: cell-based, Leishmania donovani MHOM/ET/67HU3; conditions: 72 h
Protocol: (§3) Activity of pradimicin A (PRM-A) and S (PRM-S) was tested against promastigote and amastigote forms of L. donovani MHOM/ET/67HU3.
To determine activity against the amastigote form, 1×10^5 mouse peritoneal macrophages were seeded in 24-well tissue culture chamber slides using RPMI 1640 medium supplemented with 10% HIFBS, 2 mM L-glutamine, 100 U·mL-1 penicillin and 100 μg·mL^−1 streptomycin. Compounds were added and cells were then infected with late-stage promastigotes at a macrophage/parasite ratio of 1:10. After 8 h of infection at 35° C. and 5% CO2, extracellular parasites were removed by washing with serum-free medium, and infected macrophage cultures were incubated with different CBA concentrations for 72 h in RPMI 1640 medium plus 10% HIFBS at 37° C. with 5% CO2. After that, macrophages were fixed with 2.5% p-formaldehyde in PBS for 30 min at 4° C., permeabilized with 0.1% Triton X-100 in PBS for 30 min, and incubated with Gold antifade reagent plus DAPI in order to detect the intracellular parasites. Drug activity was determined from the percentage of infected cells and from the number of amastigotes per cell in drug-treated versus non-treated cultures.

[3] = tested on: T. brucei BSF; experiment: In vitro growth inhibition of T. brucei bloodstream forms; format: cell-based, Trypanosoma brucei brucei
Protocol: Trypanosoma brucei brucei single-marker bloodstream forms (BSF) (antigenic type 1.2, MITat 1.2, clone 221a) strain 427, harbouring T7 RNA polymerase and the tetracycline repressor (Wirtz et al., 1999) and Trypanosoma brucei rhodesiense EATRO3 ETat1.2 TREU164 (Turner et al., 2004) were used in this study. Bloodstream forms were cultured at 37° C. and 5% CO2 in HMI-9 supplemented with 10% (v/v) or 20% fetal bovine serum, respectively. The non-peptidic CBAs pradimicin A (PRM-A, derived from Actinomadura hibisca) (Oki et al., 1988) and pradimicin S (PRM-S, derived from Actinomadura spinosa strain A A08 51) (Saitoh et al., 1993) were tested for inhibition of parasite growth.

[4] = tested on: L. donovani promastigotes; experiment: In vitro activity against L. donovani promastigotes (proliferation, cell counting); format: cell-based, Leishmania donovani MHOM/ET/67HU3; conditions: 48 h
Protocol: as §3
In the case of the promastigote forms, 2.5×10^4 parasites were incubated in 24-well plates (1 mL) for 48 h at different drug concentrations between 0.391 μg·mL^−1 and 50 μg·mL^−1 in RPMI 1640 modified supplemented with 20% FBS, 2 mM L-glutamine, 100 U·mL^−1 penicillin and 100 μg·mL^−1 of streptomycin. The proliferation was determined by counting the number of cells using a Z1 Coulter counter. EC50 values were calculated by nonlinear regression analysis.

[5] = tested on: Macrophages; experiment: Toxicity in macrophages; format: cell-based, mouse
[6] = tested on: T. cruzi epimastigotes; experiment: In vitro activity against T. cruzi epimastigotes (resazurin viability); format: cell-based, Trypanosoma cruzi Tulahuen strain C4; conditions: 3 days
Protocol: as §1, §2

[7] = tested on: T. b. rhodesiense EATRO3; experiment: In vivo activity of PRM-S in BALB/c mice infected with T. b. rhodesiense EATRO3; conditions: for MRD (mean relapse day) / MSD (mean survival day) / cured/infected: BALB/c; for cured/infected: from day 3 post-infection
Source text: (§4) In order to establish the trypanocidal capacity of PRM-S, C57BL/6J or BALB/c mice were infected with T. b. brucei 427 or T. b. rhodesiense EATRO3 strains, respectively, and infection was allowed to proceed for 3 days before treatment with PRM-S, one dosage per day for 4 days.
(§5) Female C57BL/6 or BALB/c mice (Jackson Laboratories, Bar Harbor, Me.) were split in groups containing between three and six mice (6-8 weeks old), and infected via intraperitoneal route with 5×10^3 (T. b. brucei strain 427) or 1×10^4 (T. b. rhodesiense EATRO3) trypanosomes, respectively. Different dosages of PRM-S ([…] and 50 mg·kg^−1) were administered once/day intraperitoneally (200 μL) for 4 days starting on the third day post-infection, in 0.5% w/v hydroxypropylmethylcellulose (HPMC), 0.4% v/v Tween 80 and 0.5% v/v benzyl alcohol used as dosage formulation. One group of mice in each case was also infected and treated with the vehicle as control, Parasitaemia was monitored daily in a haematocytometer under a microscope from the third day post-infection and after tail blood extraction.

[8] = tested on: T. b. brucei 427; experiment: In vivo activity of PRM-S in C57BL/6J mice infected with T. b. brucei 427; conditions: for MRD (mean relapse day) / MSD (mean survival day) / cured/infected: C57BL/6J; for cured/infected: from day 3 post-infection
Source text: as §4, §5

[9] = read-out: EC50 (% Lysis) T. cruzi
[10] = 4 × 25 mg·kg^−1 i.p., listed as PRMS
[11] = 4 × 50 mg·kg^−1 i.p., listed as PRMS

SMILES	EC50 [2] [µM]	EC50 (μg · mL^−1) [2] [µg/mL]	EC50 [3] [µM]	EC50 (μg · mL^−1) [3] [µg/mL]	EC50 [4] [µM]	EC50 (μg · mL^−1) [4] [µg/mL]	EC50 [5] [µM]	EC50 (μg · mL^−1) [5] [µg/mL]	EC50 (% Lysis) T. cruzi [1] [µg/mL]	EC50 [1, 9] [µM]	EC50 [6] [µM]	EC50 (μg · mL^−1) [6] [µg/mL]	further results
O=C(Cn1ccnc1[N+](=O)[O-])NCc1ccccc1 [Benznidazole, reference compound]	–	–	–	–	–	–	–	–	–	–	–	–	EC50 ([1]; Trypanosoma cruzi, read-out: EC50 (% Lysis) T. cruzi): 5.2 ± 0.2 µM; EC50 ([1]; Trypanosoma cruzi, read-out: EC50 (% Lysis) T. cruzi (μg · mL^−1)): 1.35 ± 0.05 µg/mL
CN[C@@H]1[C@H](O[C@@H]2OC[C@@H](O)[C@H](O)[C@H]2O)[C@@H](O)[C@H](O[C@H]2c3cc(C)c(C(=O)N[C@H](C)C(=O)O)c(O)c3-c3c(cc4c(c3O)C(=O)c3cc(OC)cc(O)c3C4=O)[C@@H]2O)O[C@@H]1C [PRM-A, pradimicin A]	0.8 ± 0.1	0.7 ± 0.1 (≈ 0.833 µM)	3.8 ± 0.05	3.20 ± 0.04 (≈ 3.81 µM)	21.4 ± 0.8	18.0 ± 0.7 (≈ 21.4 µM)	> 100	>100	1.0 ± 0.3 (≈ 1.19 µM)	1.2 ± 0.3	28.1 ± 1.3	23.6 ± 1.1 (≈ 28.1 µM)	–
CN[C@@H]1[C@H](O[C@@H]2O[C@H](CO)[C@@H](O)[C@H](OS(=O)(=O)O)[C@H]2O)[C@@H](O)[C@H](O[C@@H]2c3cc(C)c(C(=O)N[C@H](CO)C(=O)O)c(O)c3-c3c(cc4c(c3O)C(=O)c3cc(OC)cc(O)c3C4=O)[C@H]2O)O[C@@H]1C [PRM-FS, Pradimicin-FS]	–	–	13.5 ± 0.8	13.0 ± 0.7 (≈ 13.4 µM)	50.8 ± 2.1	49.1 ± 2.0 (≈ 50.8 µM)	–	–	–	–	–	–	–
CN[C@@H]1[C@H](O[C@@H]2O[C@H](CO)[C@@H](O)[C@H](OS(=O)(=O)O)[C@H]2O)[C@@H](O)[C@H](O[C@H]2c3cc(C)c(C(=O)N[C@H](C)C(=O)O)c(O)c3-c3c(cc4c(c3O)C(=O)c3cc(OC)cc(O)c3C4=O)[C@@H]2O)O[C@@H]1C [PRM-S, pradimicin S]	2.3 ± 0.3	2.2 ± 0.2 (≈ 2.31 µM)	6.44 ± 0.08	5.85 ± 0.08 (≈ 6.15 µM)	22.9 ± 1.9	21.8 ± 1.9 (≈ 22.9 µM)	> 100	>100	1.2 ± 0.3 (≈ 1.26 µM)	1.4 ± 0.3	19 ± 2.6	17.3 ± 2.4 (≈ 18.2 µM)	mice in which parasitaemia appeared subsequently (relapse) ([7]; 25 mg·kg^−1): three of the five mice; MRD (mean relapse day) ([7]; 4 × 25 mg·kg^−1 i.p.): 10.7 ± 0.6 days; MSD (mean survival day) ([7]; 4 × 25 mg·kg^−1 i.p.): 44.4 ± 41.7 days; MRD (mean relapse day) [7, 10]: 10.7 ± 0.6 days; MSD (mean survival day) [7, 10]: 44.4 ± 41.7 days; cured/infected ([7]; 4 × 25 mg·kg^−1 i.p.): 2/5; MSD (mean survival day) ([7]; 4 × 50 mg·kg^−1 i.p.): > 90 days; MSD (mean survival day) [7, 11]: >90 days; cured/infected ([7]; 4 × 50 mg·kg^−1 i.p.): 5/5; parasitaemia ([7]; both dosages (25 and 50 mg·kg^−1), after the first administration): drastically reduced; MRD (mean relapse day) ([8]; 4 × 25 mg·kg^−1 i.p.): 10.7 ± 0.6 days; MSD (mean survival day) ([8]; 4 × 25 mg·kg^−1 i.p.): 18.0 ± 7 days; MRD (mean relapse day) [8, 10]: 10.7 ± 0.6 days; MSD (mean survival day) [8, 10]: 18.0 ± 7 days; cured/infected ([8]; 4 × 25 mg·kg^−1 i.p.): 0/3; MSD (mean survival day) ([8]; 4 × 50 mg·kg^−1 i.p.): > 90 days; MSD (mean survival day) [8, 11]: >90 days; cured/infected ([8]; 4 × 50 mg·kg^−1 i.p.): 6/6; parasitaemia ([8]; after the first dose of 50 mg·kg^−1): dramatic decrease of parasitaemia; parasitaemia ([8]; after the third dose of 25 mg·kg^−1): dramatic decrease of parasitaemia
